The subject of the experiment is Zymoseptoria tritici (SEPTTR). Briefly: Field assessment of Zymoseptoria tritici (SEPTTR) in wheat, three field trials. It is filed as in vivo, Zymoseptoria tritici on winter wheat (TRZAW). To be noted: average over 3 field trials. From the text:
Treatments consisted of the compound of Formula I and chlorothalonil either using individually or as a two-way mixture with the compound of Formula I. The compound of Formula I was applied with Agnique BP-420 (50% w/w at 0.3% v/v) at 75 and 150 g ai/ha and chlorothalonil (Bravo 500) was applied at 375 and 500 g ai/ha. Commercial standards used in the studies were Fluxapyroxad (Imtrex), applied at 100 g ai/ha, and Metconazole+Fluxapyroxad (Librax), applied at 161 g ai/ha.
Field Assessment of Zymoseptoria tritici (SEPTTR) in Wheat:
Fungicidal treatments containing the compound of Formula I and chlorothalonil, either individually or as a two way mixture, were assessed against leaf spot of wheat (SEPTTR) in three separate field trials. In the first trial, fungicidal treatments were applied at BBBCH37 (curative, 3% infection at application on L3) growth stage of winter wheat (TRZAW, Dinosor variety) under naturally occurring infection with SEPTTR. The treatments were part of an experimental trial designed as a randomized complete block with four replications and a plot of approximately 1×6 m. Treatments were applied at water volume of 200 L/ha, using a backpack plot sprayer (BKPCKENG, FLATFANA nozzle) and pressurized at 200 kPa.
In the second trial, fungicidal treatments were applied twice at BBCH32 (curative, 25% infection at application on L5) and BBBCH37-39 (5% infection at application on L3) growth stages of winter wheat (TRZAW, Consort variety) under naturally occurring infection with SEPTTR. The treatments were part of an experimental trial designed as a randomized complete block with four replications and a plot of approximately 1×2 m. Treatments were applied at water volume of 200 L/ha, using a backpack plot sprayer (BKPCKAIR, Flat fan nozzle) and pressurized at 210 kPa.
In the final trial, fungicidal treatments were applied twice at BBCH32 (protective, 15% infection at application on L6) and BBBCH37-39 (12% infection at application on L5) growth stages of winter wheat (TRZAW, Smaragd variety) under naturally occurring infection with SEPTTR. […]
Disease severity (percentage of visual diseased foliage on whole plot or leaves) in […] was recorded following EPPO PP1/26 guideline prescriptions. Area under the disease progress curve (AUDPC) was calculated for each plot in both trials using the sets of recorded severity data. Relative AUDPC (% control based on AUDPC) was calculated as percent of the nontreated control. Final results for the control of leaf spot of wheat by the compound of Formula I, chlorothalonil, and mixtures are reported as an average of the relative AUDPC calculated over all three field trials. […]

Turning to `N#Cc1c(Cl)c(Cl)c(Cl)c(C#N)c1Cl` [Chlorothalonil, tetrachloroisophthal-onitrile], the “SEPTTR % Control based on AUDPC” value (375 g ai/ha) was determined as 31.8% and the “SEPTTR % Control based on AUDPC” value (500 g ai/ha) was found to be 37.8%.

Turning to `N#Cc1ccc(Oc2ccc(C(F)(F)C(O)(Cn3nc[nH]c3=S)c3ccc(F)cc3F)nc2)cc1` (stereo not shown) [Compound I, 4-((6-(2-(2,4-difluorophenyl)-1,1-difluoro-2-hydroxy-3-(5-thioxo-4,5-dihydro-1H-1,2,4-triazol-1-yl)propyl)pyridin-3-yl)oxy)benzonitrile], the “SEPTTR % Control based on AUDPC” value is, setting by setting: (75 g ai/ha, with Agnique BP-420 (50% w/w at 0.3% v/v)) 61.2%; (150 g ai/ha, with Agnique BP-420 (50% w/w at 0.3% v/v)) 72.2%.
